# From patent US9422311B2, “Compounds for the treatment of hepatitis C” (priority 2012, dated 2016)
# Like-named read-outs stand apart in the source and are kept apart here.
# Tested on: HCV pseudoparticles, genotype 1a (H77C) E1 and E2 envelope
# Assay: HCV pseudoparticle infection assay (luciferase, Huh7 cells)
# Format: cell-based, hepatitis C virus (HCV) genotype 1a
# Conditions: Hepatitis C virus, Huh-7, 48 h, read-out: EC50 (nM) 1a (H77C), HCV pseudoparticles genotype 1a (H77C), Huh7 cells, luciferase 2 days after infection
SMILES,EC50 (class symbol) [nM],EC50 (numeric value) [nM]
CN(C)C(=O)C(=O)N1CCCOc2ccc(cc2Cl)CNc2nc(nc(OCC(F)(F)F)n2)Nc2ccc(cc2)C(=O)NCC(C)(C)C1 [Example 3001],0.1 to 100,–
CC1(C)CNC(=O)c2ccc(nc2)Nc2cc(nc(OCC(F)(F)F)n2)NCc2ccc(cc2)OCCCN(C(=O)C(=O)Nc2ccc(Cl)c(F)c2)C1 [Example 2003],0.1 to 100,0.105
CC1(C)CNC(=O)c2ccc(cc2)Nc2nc(nc(OCC(F)(F)F)n2)NCc2ccc(c(Cl)c2)OCCCN(C(=O)C(=O)NC2CCCCC2)C1 [Example 3012],0.1 to 100,–
Cc1nnc(NC(=O)C(=O)N2CCCOc3ccc(cc3Cl)CNc3nc(nc(OCC(F)(F)F)n3)Nc3ccc(cc3)C(=O)NCC(C)(C)C2)s1 [Example 3020],0.1 to 100,–
C=C1COc2ccc(cc2)CNc2nc(nc(OCC(F)(F)F)n2)Nc2ccc(cc2)C(=O)NCC(C)(C)CN(C(=O)C(=O)OCC)C1 [Example 1001],0.1 to 100,0.629
CC1(C)CNC(=O)c2ccc(cc2)Nc2nc(nc(OCC(F)(F)F)n2)NCc2ccc(c(Cl)c2)OCCCN(C(=O)C(=O)Nc2cc(F)cc(F)c2)C1 [Example 3010],0.1 to 100,–
CC1(C)CNC(=O)c2ccc(nc2)Nc2cc(nc(OCC(F)(F)F)n2)NCc2ccc(cc2)OCCCN(C(=O)C(=O)Nc2ccc(C#N)cc2)C1 [Example 2004],0.1 to 100,–
C=C1COc2ccc(cc2)CNc2nc(nc(OCC(F)(F)F)n2)Nc2ccc(cc2)C(=O)NCC(C)(C)CN(C(=O)C(=O)NCC2CC2)C1 [Example 1003],0.1 to 100,–
CC1(C)CNC(=O)c2ccc(cc2)Nc2nc(nc(OCC(F)(F)F)n2)NCc2ccc(c(Cl)c2)OCCCN(C(=O)C(=O)Nc2ccccc2)C1 [Example 3009],0.1 to 100,–
CC1(C)CNC(=O)c2ccc(cc2)Nc2nc(nc(OCC(F)(F)F)n2)NCc2ccc(c(Cl)c2)OCCCN(C(=O)C(=O)Nc2nccs2)C1 [Example 3019],0.1 to 100,–
C=C1COc2ccc(cc2)CNc2nc(nc(OCC(F)(F)F)n2)Nc2ccc(cc2)C(=O)NCC(C)(C)CN(C(=O)C(=O)Nc2ccc(F)cc2)C1 [Example 1004],0.1 to 100,–
CC1(C)CNC(=O)c2ccc(cc2)Nc2nc(nc(OCC(F)(F)F)n2)NCc2ccc(c(Cl)c2)OCCCN(C(=O)C(=O)N2CCOCC2)C1 [Example 3005],0.1 to 100,–
CC1(C)CNC(=O)c2ccc(cc2)Nc2nc(nc(OCC(F)(F)F)n2)NCc2ccc(c(Cl)c2)OCCCN(C(=O)C(N)=O)C1 [Example 3002],0.1 to 100,–
CC1(C)CNC(=O)c2ccc(cc2)Nc2nc(nc(OCC(F)(F)F)n2)NCc2ccc(c(Cl)c2)OCCCN(C(=O)C(=O)N2CCc3ccccc3C2)C1 [Example 3013],0.1 to 100,–
CC(C)CNC(=O)C(=O)N1CCCOc2ccc(cc2Cl)CNc2nc(nc(OCC(F)(F)F)n2)Nc2ccc(cc2)C(=O)NCC(C)(C)C1 [Example 3014],0.1 to 100,–
CC1(C)CNC(=O)c2ccc(cc2)Nc2nc(nc(OCC(F)(F)F)n2)NCc2ccc(c(Cl)c2)OCCCN(C(=O)C(=O)N2CCCCC2)C1 [Example 3018],0.1 to 100,–
CC1(C)CNC(=O)c2ccc(cc2)Nc2nc(nc(OCC(F)(F)F)n2)NCc2ccc(c(Cl)c2)OCCCN(C(=O)C(=O)Nc2cccc(F)c2)C1 [Example 3007],0.1 to 100,–
Cc1cc(NC(=O)C(=O)N2CCCOc3ccc(cc3Cl)CNc3nc(nc(OCC(F)(F)F)n3)Nc3ccc(cc3)C(=O)NCC(C)(C)C2)no1 [Example 3017],0.1 to 100,–
Cc1ccc(NC(=O)C(=O)N2CCCOc3ccc(cc3Cl)CNc3nc(nc(OCC(F)(F)F)n3)Nc3ccc(cc3)C(=O)NCC(C)(C)C2)cc1 [Example 3003],0.1 to 100,–
CNC(=O)C(=O)N1CCCOc2ccc(cc2Cl)CNc2nc(nc(OCC(F)(F)F)n2)Nc2ccc(cc2)C(=O)NCC(C)(C)C1 [Example 3015],0.1 to 100,–
C=C1COc2ccc(cc2)CNc2nc(nc(OCC(F)(F)F)n2)Nc2ccc(cc2)C(=O)NCC(C)(C)CN(C(=O)C(=O)O)C1 [Example 1002],0.1 to 100,5.73
CC1(C)CNC(=O)c2ccc(cc2)Nc2nc(nc(OCC(F)(F)F)n2)NCc2ccc(c(Cl)c2)OCCCN(C(=O)C(=O)Nc2nncs2)C1 [Example 3006],0.1 to 100,–
CCc1nnc(NC(=O)C(=O)N2CCCOc3ccc(cc3Cl)CNc3nc(nc(OCC(F)(F)F)n3)Nc3ccc(cc3)C(=O)NCC(C)(C)C2)s1 [Example 3016],0.1 to 100,24
CC1(C)CNC(=O)c2ccc(cc2)Nc2nc(nc(OCC(F)(F)F)n2)NCc2ccc(c(Cl)c2)OCCCN(C(=O)C(=O)Nc2ccc(F)cc2)C1 [Example 3008],0.1 to 100,2.42
